# Results from patent publication US20160237059A1, “HETEROCYCLIC SUBSTITUTED TRIFLUOROMETHYL PYRIMIDINONES AND THEIR USE” (BAYER PHARMA AKTIENGESELLSCHAFT, priority 2013, published 2016).
# Key:
# [1] = biological target: T1, human CCR2 (Homo sapiens, UniProt P41597); assay: Functional Ca2+ release test (B-1); assay type: cell-based; details: Chem-1 cell line transfected with human CCR2; 50% inhibition of the MCP-1 effect, MCP-1 at EC50 (about 5 nM); in some cases means of several determinations
# T1 construct: host or cells: Chem-1 cell line
# T1 sequence (P41597 1-360 isoform P41597-2): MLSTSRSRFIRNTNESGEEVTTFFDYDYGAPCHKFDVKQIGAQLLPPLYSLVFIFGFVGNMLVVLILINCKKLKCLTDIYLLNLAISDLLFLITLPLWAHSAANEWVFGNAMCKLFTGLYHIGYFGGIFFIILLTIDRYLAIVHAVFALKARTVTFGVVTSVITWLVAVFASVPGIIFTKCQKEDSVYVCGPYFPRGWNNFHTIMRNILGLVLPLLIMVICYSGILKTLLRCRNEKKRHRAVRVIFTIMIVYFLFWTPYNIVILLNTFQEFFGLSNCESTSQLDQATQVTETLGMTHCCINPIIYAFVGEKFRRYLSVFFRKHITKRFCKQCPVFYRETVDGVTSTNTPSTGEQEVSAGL
# Protocol: The antagonistic action of test substances on CCR2 was determined in a functional Ca^2+ release test. Binding of CCL2/MCP-1 to CCR2 leads to a change in the conformation of the receptor resulting in Gi/Gq protein activation and intracellular signal cascade. This involves, inter alia, an intracellular Ca^2+ release. The test cell used was a Chem-1 cell line transfected with human CCR2 (ChemiSCREEN™ CCR2B Calcium-Optimized FLIPR Cell Line, Merck Millipore).
# (§1) The test substances were dissolved in dimethyl sulphoxide (DMSO) at a concentration of 10 mM and serially diluted with DMSO in steps of 1:3.16 for a 10-point dose/activity analysis. According to the desired test concentrations, the substances were pre-diluted in Tyrode with 2 mM CaCl2 and 0.05% BSA.
# The cells, cultivated in DMEM high glucose [supplemented with 10% FCS, 1 mM pyruvate, 15 mM HEPES, 500 μg/ml geniticin and non-essential amino acids (NEAA)], were sown at 5000 cells/25 μl in 384 well, μCLEAR/black cell culture plates from Greiner (#781092) and incubated at 37° C. for 24 h. The sowing medium consisted of DMEM high glucose [supplemented with 5% FCS, 1 mM pyruvate, 15 mM HEPES, 50 U/ml penicillin, 50 μg/ml streptomycin and non-essential amino acids (NEAA)]. The medium was then removed and the cells were charged for 60 min at 37° C. with Fluo-4 dye [25 μl Tyrode with 3 μM Fluo-4 AM (1 mM DMSO stock solution), 0.4 mg/ml Brilliant Black, 2.5 mM probenicid, 0.03% Pluronic F-127]. The cells were pre-incubated for 10 min with 10 μl of the test substances diluted in buffer, and 20 μl of agonist solution (MCP-1 in Tyrode with 0.05% BSA) were then added. MCP-1 was employed at the concentration which corresponds to the EC50 which had been determined in a preliminary test (usually about 5 nM). Ca^2+ release was monitored over a period of 120 s in 1 s increments in a proprietary fluorescence imaging reader. The molar concentration of the test substance which caused 50% inhibition of the MCP-1 effect (IC50) was determined using a 4-parameter logistic function (Hill function).
# [2] = biological target: T2, murine CCR2 (Mus musculus, UniProt P51683); assay: Functional β-arrestin recruiting test with murine MCP-1 (B-2b); assay type: cell-based; details: U2OS β-arrestin cell line transfected with murine CCR2; agonist murine MCP-1; in some cases means of several determinations
# T2 construct: host or cells: U2OS β-arrestin cell line
# T2 sequence (P51683 whole entry): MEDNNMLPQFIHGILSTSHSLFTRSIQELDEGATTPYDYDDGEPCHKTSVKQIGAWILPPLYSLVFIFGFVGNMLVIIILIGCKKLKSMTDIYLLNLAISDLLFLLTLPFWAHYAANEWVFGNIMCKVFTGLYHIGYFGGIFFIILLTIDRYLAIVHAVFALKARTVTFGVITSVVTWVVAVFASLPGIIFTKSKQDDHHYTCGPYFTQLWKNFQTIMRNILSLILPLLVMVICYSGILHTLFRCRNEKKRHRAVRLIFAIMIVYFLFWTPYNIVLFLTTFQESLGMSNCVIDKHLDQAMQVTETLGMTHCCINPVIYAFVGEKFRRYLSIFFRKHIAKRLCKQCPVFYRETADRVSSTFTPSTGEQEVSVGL
# Protocol: The antagonistic action of test substances on CCR2 was determined in a β-arrestin test. The PathHunter β-arrestin GPCR test system (DiscoveRx Corporation, Ltd.) is a cell-based functional method for detecting binding of β-arrestin to an activated receptor. The molecular basis is a […] complementation measured by the enzymatic conversion of a chemiluminescent substrate. The test cell used was a U2OS β-arrestin cell line transfected with murine CCR2 (93-0543C3, DiscoveRx Corporation, Ltd.).
# as §1
# The cells, cultivated in MEM Eagle (supplemented with 10% FCS, 50 U/ml of penicillin, 50 μg/ml of streptomycin, 250 μg/ml of hygromycin and 500 μg/ml of geniticin), were sown at 2000 cells/25 μl in 384 well, μCLEAR/black cell culture plates from Greiner (#781092) and incubated at 37° C. for 24 h. The sowing medium consisted of Opti-MEM (supplemented with 1% FCS, 50 U/ml of penicillin and 50 μg/ml of streptomycin). The cells were pre-incubated for 10 min with 10 μl of the test substances diluted in buffer, and 10 μl of agonist solution [human MCP-1 (PeproTech, #300-04) in Tyrode with 0.05% BSA) were then added. The human MCP-1 was employed at the concentration which corresponds to the EC50 which had been determined in a preliminary test (usually about 3 nM). After 90 min of incubation at 37° C., the solution was removed, and recruitment of β-arrestin to CCR2 was detected with the aid of the PathHunter detection reagent (93-001, DiscoveRx Corporation, Ltd.) according to the instructions of the manufacturer. Luminescence was measured after an incubation time of 60 min using a proprietary luminescence imaging measuring instrument. The molar concentration of the test substance which caused 50% inhibition of the MCP-1 effect (IC50) was determined using a 4-parameter logistic function (Hill function).
# The test was carried out in a manner identical to that described above under B-2a, but using murine MCP-1 (PeproTech, #250-10) as agonist.
SMILES,IC50 [1],IC50 [2]
CSc1cccnc1-c1nc(C(F)(F)F)c(Oc2ccc(Cl)c(C(F)(F)F)c2)c(=O)[nH]1 [Example 114],0.1 nM,6.1 nM
"CSc1cccnc1-c1nc(C(F)(F)F)c(Oc2ccc(Cl)c(Cl)c2)c(=O)[nH]1 [Example 115, 5-(3,4-dichlorophenoxy)-2-[3-(methylsulphanyl)pyridin-2-yl]-6-(trifluoromethyl)pyrimidin-4(3H)-one]",0.2 nM,7.6 nM
COc1nccnc1-c1nc(C(F)(F)F)c(Oc2ccc(Cl)c(C(F)(F)F)c2)c(=O)[nH]1 [Example 116],0.3 nM,37 nM
"COc1nccnc1-c1nc(C(F)(F)F)c(Oc2ccc(Cl)c(Cl)c2)c(=O)[nH]1 [Example 117, 5-(3,4-dichlorophenoxy)-2-(3-methoxypyrazin-2-yl)-6-(trifluoromethyl)pyrimidin-4(3H)-one]",0.3 nM,36 nM
"O=c1[nH]c(-c2cccnn2)nc(C(F)(F)F)c1Oc1ccc(Cl)c(C(F)(F)F)c1 [Example 118, 5-[4-chloro-3-(trifluoromethyl)phenoxy]-2-(pyridazin-3-yl)-6-(trifluoromethyl)pyrimidin-4(3H)-one]",0.4 nM,73 nM
"COc1ccc(-c2nc(C(F)(F)F)c(Oc3ccc(Cl)c(C(F)(F)F)c3)c(=O)[nH]2)nc1 [Example 119, 5-[4-chloro-3-(trifluoromethyl)phenoxy]-2-(5-methoxypyridin-2-yl)-6-(trifluoromethyl)pyrimidin-4(3H)-one]",0.4 nM,185 nM
"COc1cncnc1-c1nc(C(F)(F)F)c(Oc2ccc(Cl)c(C(F)(F)F)c2)c(=O)[nH]1 [Example 120, 5-[4-chloro-3-(trifluoromethyl)phenoxy]-5′-methoxy-6-(trifluoromethyl)-2,4′-bipyrimidin-4(3H)-one]",0.5 nM,44 nM
"Nc1ccc(-c2nc(C(F)(F)F)c(Oc3ccc(Cl)c(Cl)c3)c(=O)[nH]2)nn1 [Example 121, 2-(6-aminopyridazin-3-yl)-5-(3,4-dichlorophenoxy)-6-(trifluoromethyl)pyrimidin-4(3H)-one]",0.5 nM,149 nM
"COc1cc(OC)nc(-c2nc(C(F)(F)F)c(Oc3ccc(Cl)c(C(F)(F)F)c3)c(=O)[nH]2)n1 [Example 122, 5-[4-chloro-3-(trifluoromethyl)phenoxy]-4′,6′-dimethoxy-6-(trifluoromethyl)-2,2′-bipyrimidin-4(3H)-one]",0.6 nM,164 nM
"Nc1ccc(-c2nc(C(F)(F)F)c(Oc3ccc(Cl)c(Cl)c3)c(=O)[nH]2)nc1 [Example 123, 2-(5-aminopyridin-2-yl)-5-(3,4-dichlorophenoxy)-6-(trifluoromethyl)pyrimidin-4(3H)-one]",0.6 nM,28 nM
"O=c1[nH]c(-c2ccncc2Cl)nc(C(F)(F)F)c1Oc1ccc(Cl)c(Cl)c1 [Example 124, 2-(3-chloropyridin-4-yl)-5-(3,4-dichlorophenoxy)-6-(trifluoromethyl)pyrimidin-4(3H)-one]",2.9 nM,320 nM
"O=c1[nH]c(-c2cccnn2)nc(C(F)(F)F)c1Oc1ccc(Cl)c(Cl)c1 [Example 125, 5-(3,4-dichlorophenoxy)-2-(pyridazin-3-yl)-6-(trifluoromethyl)pyrimidin-4(3H)-one]",9.5 nM,475 nM
"O=c1[nH]c(-c2ccnnc2)nc(C(F)(F)F)c1Oc1ccc(Cl)c(Cl)c1 [Example 126, 5-(3,4-dichlorophenoxy)-2-(pyridazin-4-yl)-6-(trifluoromethyl)pyrimidin-4(3H)-one]",1120 nM,13900 nM
"O=c1[nH]c(-c2cnccn2)nc(C(F)(F)F)c1Oc1ccc(Cl)c(Cl)c1 [Example 127, 5-(3,4-dichlorophenoxy)-2-(pyrazin-2-yl)-6-(trifluoromethyl)pyrimidin-4(3H)-one]",2.1 nM,372 nM
"Nc1ccnc(-c2nc(C(F)(F)F)c(Oc3ccc(Cl)c(Cl)c3)c(=O)[nH]2)c1 [Example 128, 2-(4-aminopyridin-2-yl)-5-(3,4-dichlorophenoxy)-6-(trifluoromethyl)pyrimidin-4(3H)-one]",3.2 nM,360 nM
"O=c1[nH]c(-c2ccnnc2)nc(C(F)(F)F)c1Oc1ccc(Cl)c(C(F)(F)F)c1 [Example 129, 5-[4-chloro-3-(trifluoromethyl)phenoxy]-2-(pyridazin-4-yl)-6-(trifluoromethyl)pyrimidin-4(3H)-one]",222 nM,2710 nM
"O=c1[nH]c(-c2ccncc2Cl)nc(C(F)(F)F)c1Oc1ccc(Cl)c(C(F)(F)F)c1 [Example 131, 2-(3-chloropyridin-4-yl)-5-[4-chloro-3-(trifluoromethyl)phenoxy]-6-(trifluoromethyl)pyrimidin-4(3H)-one]",2.8 nM,158 nM
"O=c1[nH]c(-c2cnccn2)nc(C(F)(F)F)c1Oc1ccc(Cl)c(C(F)(F)F)c1 [Example 132, 5-[4-chloro-3-(trifluoromethyl)phenoxy]-2-(pyrazin-2-yl)-6-(trifluoromethyl)pyrimidin-4(3H)-one]",3.8 nM,259 nM
"CN(C)c1ccc(-c2nc(C(F)(F)F)c(Oc3ccc(Cl)c(Cl)c3)c(=O)[nH]2)nc1 [Example 133, 5-(3,4-dichlorophenoxy)-2-[5-(dimethylamino)pyridin-2-yl]-6-(trifluoromethyl)pyrimidin-4(3H)-one]",0.8 nM,21700 nM
"CN(C)c1ccc(-c2nc(C(F)(F)F)c(Oc3ccc(Cl)c(C(F)(F)F)c3)c(=O)[nH]2)nc1 [Example 134, 5-[4-chloro-3-(trifluoromethyl)phenoxy]-2-[5-(dimethylamino)pyridin-2-yl]-6-(trifluoromethyl)pyrimidin-4(3H)-one]",2.1 nM,51 nM
"CN(C)c1cccc(-c2nc(C(F)(F)F)c(Oc3ccc(Cl)c(C(F)(F)F)c3)c(=O)[nH]2)n1 [Example 135, 5-[4-chloro-3-(trifluoromethyl)phenoxy]-2-[6-(dimethylamino)pyridin-2-yl]-6-(trifluoromethyl)pyrimidin-4(3H)-one]",14 nM,1570 nM
"Cn1nc(-c2nc(C(F)(F)F)c(Oc3ccc(Cl)c(Cl)c3)c(=O)[nH]2)c2ccccc21 [Example 136, 5-(3,4-dichlorophenoxy)-2-(1-methyl-1H-indazol-3-yl)-6-(trifluoromethyl)pyrimidin-4(3H)-one]",39 nM,1220 nM
